Measurements from publication PMC5514153, “Targeting PTPRZ inhibits stem cell-like properties and tumorigenicity in glioblastoma cells” (Scientific Reports, 2017).

Legend:
[1] = system: PTPRZ and PTPRG V-to-F substitution mutants; assay: Sensitivity of V-to-F mutants to competitive inhibitors; type: biochemical, human; conditions: SCB4380 10 µM, vanadate 200 µM; on average
Procedure: For determination of IC50 values, Lineweaver-Burk plot, and inhibitor sensitivity assays, recombinant PTP proteins were preincubated with a dilution series of the compound in assay buffer (100 mM acetate, 50 mM Tris, and 50 mM Bis-Tris, pH 6.5 containing 100 μg/ml BSA, 5 mM DTT, and 0.01% Brij-35) for 1 h, and the enzyme-inhibitor mixture was added to an equal volume of 40 μM DiFMUP (6,8-difluoro-4-methylumbiliferyl phosphate, #D6567, Thermo Fisher Scientific) solution to initiate the reaction. The hydrolysis of DiFMUP was continuously monitored as an increase in fluorescence at 455 nm (excitation at 358 nm) for ~100 s using a spectrofluorometer (FI-4500, Hitachi) at room temperature. The slope of the fluorescence signal was defined as catalytic activity. IC50 values were calculated by the conventional linear interpolation method. We examined preincubation effect, reversibility, and time dependence of PTP inhibition by NAZ2329 as described in the figure legends.
Le ge nds to Supple me ntary Figure s
Supplementary Figure S1. Aberrant expressions of core transcription factors in Ptprz-knockdown glioblastoma cells. (A) Western using antibodies against SOX2, OLIG2, POU3F2, and SALL2. […] SALL2 proteins were not detected in C6 or U251 cells. […]
positions corresponding to Val-1911 of PTPRZ1 are colored in blue and red, respectively. […] Data were analyzed as […]

[2] = target: T1, human PTPRZ1 (whole intracellular region, D1+D2) (Homo sapiens, UniProt P23471); assay: In vitro PTPase assay (DiFMUP), PTPRZ1 whole intracellular region; type: biochemical
T1 construct: Recombinant proteins corresponding to the entire intracellular regions (ICRs) of PTPRZ1, PTPRA, and PTPRM; made in house; host or cells: baculovirus-silkworm expression system
Procedure: Figure 4 NAZ2329, an allosteric inhibitor of R5 RPTP subfamily members. (A) Structure of NAZ2329. (B) Effect of preincubation of NAZ2329 on its inhibitory activity against PTPRZ. Recombinant human PTPRZ1 enzyme (the whole intracellular region) was premixed with NAZ2329 for the indicated times and followed by addition of a fluorogenic DiFMUP (non-specific PTP substrate, 6,8-difluoro-4-methylumbiliferyl phosphate) to measure PTP inhibitory activity. (C) Time dependence. The PTPRZ1 enzyme was added to the inhibitor–substrate mixture, and the inhibitory activity was determined at each time point relative to the vehicle control. (D) Reversibility of inhibition. PTPRZ1 enzymes were preincubated with NAZ2329 at the indicated concentrations for 30 min. The mixture was then 20-fold diluted, and recovered PTP activity was expressed as the relative activity compared with the vehicle-treated enzyme. (E) Lineweaver-Burk plot analysis. PTPRZ1 enzymes were preincubated with NAZ2329 for 60 min, and the PTP activity was measured using DiFMUP. (F) Concentration-inhibition curves of NAZ2329 for representative PTP members, including human PTPRZ and PTPRG (another R5 RPTP subfamily member), human PTPRS (R2A subfamily), human PTPRM (R2B subfamily), mouse PTPRB (R3 subfamily), human PTPRA (R4 subfamily), human PTPN1 (non-transmembrane PTP, NT1 subfamily), and human PTPN6 (NT2 subfamily), were generated. Assays were performed using DiFMUP. IC50 values obtained are shown in the inset. Data represent the averages of two or three separate experiments. TEXT PRINTED IN THE PICTURE: (F) NAZ2329: IC50 (μM): hPTPRZ1 7.5; IC50 (μM): hPTPRG 4.8; IC50 (μM): hPTPRA 35.7; IC50 (μM): hPTPRM 56.7; IC50 (μM): hPTPRS 23.7; IC50 (μM): mPTPRB 35.4; IC50 (μM): hPTPN6 15.2; IC50 (μM): hPTPN1 14.5
Recombinant proteins corresponding to the entire intracellular regions (ICRs) of PTPRZ1, PTPRA, and PTPRM were expressed using a baculovirus-silkworm expression system, and purified as described. The ICRs of PTPRG, PTPRS, and PTPRB and the catalytic domains of PTPN1 and PTPN6 were expressed as glutathione-S-transferase (GST) fusion proteins from each pGEX plasmid in Escherichia coli strain BL21 (ref. [6]). GST fusion proteins were purified by glutathione affinity chromatography as described. Chondroitinase ABC (chABC) was purchased from Sigma-Aldrich (catalog #C3667). Anti-PTPRZ-S, rabbit polyclonal antibodies against the extracellular region of PTPRZ was described previously (ref. [44]). The following are the specificities and sources of the commercially available antibodies used in the present study: Anti-RPTPβ (a monoclonal antibody against the intracellular domain of PTPRZ1 receptors, #610179, BD Biosciences), anti-SOX2 (#ab97959, Abcam), anti-POU3F2 (#12137, Cell Signaling), anti-OLIG2 (#AB9610, Millipore), anti-SALL2 (#12679–1-AP, Proteintech Group), anti-GAPDH (#ab9482, Abcam) anti-phosphotyrosine (PY20; #ab16389, Abcam), and anti-pY118-paxillin (#2541, Cell Signaling), mouse anti-paxillin antibody (#610569, BD Bioscience), anti-MBP (#sc-13914, Santa Cruz Biotechnology), and anti-NG2 proteoglycan (#AB5320, Millipore). […]

hPTPRZ1 (D1) = target: T2, hPTPRZ1 (D1) (Homo sapiens, UniProt P23471); assay: In vitro PTPase assay (DiFMUP), PTPRZ1 D1 domain; type: biochemical; conditions: first PTP domain fragment
T2 construct: human PTPRZ1-D1 (amino acid residues, 1,698-2,000)

C6 xenograft = assay: C6 subcutaneous xenograft nude mouse model; type: in vivo; conditions: nude mice, i.p. twice per week; NAZ2329 45 µmol (22.5 mg)/kg, TMZ 50 mg/kg; vehicle 17 days
Procedure: Figure 10 Antitumor effects of NAZ2329 on the C6 mouse xenograft model. (A) Nude mice were subcutaneously implanted with C6 cells (5 × 10^6 cells), and tumor size was monitored until the criteria were met (>150 mm^3). At this time, mice were randomly divided into 4 treatment groups. DMSO as the vehicle control (n = 7), NAZ2329 (45 µmol (22.5 mg)/kg body weight, n = 9), temozolomide (TMZ, 50 mg/kg, n = 9), and the combination of NAZ2329 (45 µmol/kg) with TMZ (50 mg/kg) (n = 9) were administered intraperitoneally twice per week until the humane endpoint (>3,000 mm^3 tumor size or 40 days after the treatment). Tumor growth in each animal and the number of days required to reach a tumor volume of 3,000 mm^3 are shown in the graph. Five mice were sacrificed due to tumor necrosis (shown by gray symbols in the graph), and two mice unexpectedly died suddenly during the observation period (black symbols in the graph).
Parental or Ptprz-knockdown C6 cells (5 × 10^6 cells) suspended in a volume of 100 µl were subcutaneously injected into the left hind limbs of BALB/c-nu/nu mice (females, 4 weeks old mice were purchased from Japanese Charles River Co. Ltd.). Tumor growth was measured with calipers and calculated by the formula: volume = length × width × width × 0.5, as previously described. The drug treatment initiated when the tumor size reached 150 mm^3. […]

[3] = not told; cited from earlier work

T1 sequence (P23471 1663-2315 limits assumed): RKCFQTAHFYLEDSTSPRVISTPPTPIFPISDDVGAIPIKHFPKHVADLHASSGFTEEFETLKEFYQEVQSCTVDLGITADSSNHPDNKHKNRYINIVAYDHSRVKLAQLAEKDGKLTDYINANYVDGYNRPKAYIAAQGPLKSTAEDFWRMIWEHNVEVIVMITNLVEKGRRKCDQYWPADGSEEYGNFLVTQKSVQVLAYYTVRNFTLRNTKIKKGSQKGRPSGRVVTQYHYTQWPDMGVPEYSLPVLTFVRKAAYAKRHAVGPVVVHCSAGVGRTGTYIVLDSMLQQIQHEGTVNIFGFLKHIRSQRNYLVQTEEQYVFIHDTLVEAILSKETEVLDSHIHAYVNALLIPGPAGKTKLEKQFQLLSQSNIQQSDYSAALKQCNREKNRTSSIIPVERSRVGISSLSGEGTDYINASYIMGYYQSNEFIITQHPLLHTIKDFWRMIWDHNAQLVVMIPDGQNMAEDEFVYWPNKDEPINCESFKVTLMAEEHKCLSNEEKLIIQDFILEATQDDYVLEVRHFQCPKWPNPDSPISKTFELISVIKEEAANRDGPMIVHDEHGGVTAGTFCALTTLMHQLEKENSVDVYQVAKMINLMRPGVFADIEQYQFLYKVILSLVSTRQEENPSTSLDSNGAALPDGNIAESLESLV
T2 sequence (P23471 1698-2000 limits assumed): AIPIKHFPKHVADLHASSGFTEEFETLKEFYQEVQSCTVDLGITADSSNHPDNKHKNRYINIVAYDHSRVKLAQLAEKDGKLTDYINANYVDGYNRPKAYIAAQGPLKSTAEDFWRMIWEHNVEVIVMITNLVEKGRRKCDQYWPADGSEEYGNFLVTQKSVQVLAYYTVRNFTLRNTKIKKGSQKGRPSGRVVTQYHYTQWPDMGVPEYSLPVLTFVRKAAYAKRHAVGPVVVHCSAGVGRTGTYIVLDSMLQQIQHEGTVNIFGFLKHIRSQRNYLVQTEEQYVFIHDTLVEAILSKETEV

Structure (SMILES) | change in sensitivity on V-to-F substitution in PTPRZ and PTPRG [1] | inhibitory effects on PTPRZ activity ([2]; Supplementary Fig. S2) | IC50 hPTPRZ1 (D1+D2) ([2]; whole intracellular region, DiFMUP, 60-min preincubation) | IC50 hPTPRZ1 (D1) (hPTPRZ1 (D1)) | median day for the tumor size to reach 3,000 mm^3 (C6 xenograft) | cell permeability [3]
[O]=[V]([O-])([O-])[O-] [vanadate] | ~ 5% |  |  |  |  | 
Cn1nnc2c(C(N)=O)ncn2c1=O [temozolomide, reference compound] |  | no significant inhibitory effects | ns | ns | 25 days | 
O=S(=O)([O-])c1ccc2c(N=Nc3ccc(S(=O)(=O)[O-])c4ccccc34)c(O)c(S(=O)(=O)[O-])cc2c1.[Na+].[Na+].[Na+] [SCB4380] | ~ 5% |  |  |  |  | cell impermeable
